Test results: PubChem BioAssay AID2060599 (Molecular Pharmacology Branch, DTP, NCI, 2025)
“And” between values parts separate entries of the source, which are not always exact repeats. Equal entries are not always repeated.

Test system: 817829-284-R-J1-PDC complex spheroids, viability
Test: Anticancer human tumor 817829-284-R-J1-PDC patient-derived colon adenocarcinoma cell line growth inhibition [CLK]
Conditions: for viability, T/C: stronger effect = lower value
From the text: A high-throughput screen of multi-cell type tumor spheroids was designed to identify active combinations of […] and targeted small molecules. Complex spheroids include a stromal component modeled by human endothelial cells (HUVEC) and fibroblasts modeled by human mesenchymal stem cells (MSCs). The concentration ranges selected for each drug and investigational agent were based upon clinically achievable concentrations if the clinical Cmax of the agent was known.
Compounds. The drugs and investigational agents: cirtuvivint (SM08502; NSC835563), CC-671 (NSC850746), vemurafenib (NSC761431), tapotoclax (NSC804041), sotorasib (NSC818433), adagrasib (NSC831453), MRTX-1133 (NSC836407), BAY2416964 (NSC825713), copanlisib (NSC816437), inavolisib (NSC800729), abemaciclib (NSC768073), osimertinib (NSC779217), entinostat (NSC756642), eltanexor (KPT-8602, NSC794443), venetoclax (NSC766270), ceralasertib (NSC777638), bortezomib (NSC756655), olaparib (NSC753686), talazoparib (NSC767125), alisertib (NSC759677), peposertib (NSC802822), gemcitabine (NSC613327), 5-fluorouracil (NSC19893), SN-38 (NSC673596), oxaliplatin (NSC266046), paclitaxel (NSC125973), and doxorubicin (NSC123127), were obtained from the National Cancer Institute (NCI) Developmental Therapeutics Program Chemical Repository. The FDA-approved anticancer drug set is available from the Developmental Therapeutics Program at https://dtp.cancer.gov/organization/dscb/obtaining/available plates.htm. […] The stock solutions were prepared in dimethyl sulfoxide (DMSO, Sigma-Aldrich, St. Louis, MO, cat. D2650), except for the platinum complexes which were prepared in saline (Quality Biological, Gaithersburg, MD, cat. 114-055-101), at 800-fold the tested concentration and stored at -70 degrees C prior to their use. All drugs and investigational agents were tested over a range starting from a high concentration at or near the clinical Cmax and decreasing in half-log increments. If the clinical Cmax for an agent had not been determined, the highest concentration tested was 10 microM.
Cell Culture. All cells were maintained in an incubator at 37 degrees C and 5% CO2 with 95% humidity. The PDC lines were cultured according to standard operating procedures established by the NCI PDMR. Briefly, all PDCs were thawed and cultured in Matrigel-coated flasks prepared with a working solution of 1X Ham's F-12 nutrient mix, without supplementation (Invitrogen, Waltham, MA, cat. 11765054), 100 U/mL penicillin-streptomycin (Invitrogen, cat. 15140122), and 2.5% Matrigel (Corning Inc., Corning, NY, cat. 354248) for the first three passages. The 947758-054-R-J2-PDC line was cultured in 6B/Colon 1A media, which includes advanced DMEM/F-12 (Thermo Fisher Scientific, cat. 12634028), 10 mM HEPES (Thermo Fisher Scientific, cat. 15630080), 1X GlutaMAX supplement (Thermo Fisher Scientific, cat. 35050061), 0.1 mg/mL primocin (InvivoGen, cat. ant-pm-2), 10% defined fetal bovine serum, heat inactivated (HyClone Laboratories Inc., cat. SH30070.03HI), 1.25 mM N-Acetyl-L-cysteine (Sigma-Aldrich, cat. A9165), 10 mM nicotinamide (Sigma-Aldrich, cat. N0636), 1X B-27 supplement (Thermo Fisher Scientific, cat. 17504044), 1X N-2 supplement (Thermo Fisher Scientific, cat. 17502048), and 10 microM Y-27632 dihydrochloride (Tocris Bioscience, cat. 1254). The 876862-298-R-J1-PDC was cultured in 6E media, which includes all 6B/Colon 1A media components plus 50% L-WRN conditioned media (ATCC, cat. CRL-3276), 50 ng/mL recombinant human EGF recombinant protein (hEGF; Thermo Fisher Scientific, cat. PHG0311), 10 ng/mL recombinant human fibroblast growth factor 10 (hGFG-10; PeproTech, cat. 100-26), 1 ng/mL recombinant human fibroblast growth factor 2 (hFGF-2; PeproTech, cat. 100-18B), and 1 µM prostaglandin E2 (PGE2; Tocris, cat. 2296). The 227483-062-R1-J1-PDC line was cultured in Panc media, containing all 6E components except hFGF-2, with the addition of 500 nM SB-431542 (Selleckchem, cat. S1067) and 10 nM gastrin (Tocris, cat. 3006). […]
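Further: spheroids exposed to the agents for seven days before readout.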

| Structure (SMILES) | viability, T/C (compound 0.0316 µM) | viability, T/C (compound 0.1 µM) | viability, T/C (compound 0.316 µM) | viability, T/C (compound 1 µM) | viability, T/C (compound 3.16 µM) | viability, T/C (compound 10 µM) | IC50 (curve of compound) | also measured |
| --- | --- | --- | --- | --- | --- | --- | --- | --- |
| C#Cc1c(F)ccc2cc(O)cc(-c3ncc4c(N5CC6CCC(C5)N6)nc(OCC56CCCN5CC(F)C6)nc4c3F)c12 (centres undefined) | 126% and 105% | 74% and 131% | 116% and 80.9% | 81.9% and 122% | 60% and 100% | 62.3% and 79.4% | > 10 µM |  |
| C=C(F)C(=O)N1CCN(c2nc(OCC3CCCN3C)nc3c2CCN(c2cccc4cccc(Cl)c24)C3)CC1CC#N (centres undefined) | 99.4% and 105% | 73% and 144% | 141% and 96.3% | 77.1% and 84.6% | 20.8% and 21.4% | 0.08% and 0.14% | 1.77 µM and 1.85 µM |  |
| C=CC(=O)N1CCN(c2nc(=O)n(-c3c(C)ccnc3C(C)C)c3nc(-c4c(O)cccc4F)c(F)cc23)C(C)C1 (centres undefined) | 101% and 136% | 97.2% and 101% | 101% and 92.9% | 100% | 101% | 57% and 87.9% | > 10 µM |  |
| C=CC(=O)Nc1cc(Nc2nccc(-c3cn(C)c4ccccc34)n2)c(OC)cc1N(C)CCN(C)C |  |  |  |  |  |  | > 0.3 µM | viability, T/C (compound 0.000949 µM): 108%; viability, T/C (compound 0.003 µM): 101%; viability, T/C (compound 0.00949 µM): 85.9%; viability, T/C (compound 0.03 µM): 72.9%; viability, T/C (compound 0.0949 µM): 99.5%; viability, T/C (compound 0.3 µM): 73.8% |
| CC(C)CC(NC(=O)C(Cc1ccccc1)NC(=O)c1cnccn1)B(O)O (centres undefined) |  |  |  |  |  |  | 0.00151 µM and 0.00163 µM | viability, T/C (compound 0.000949 µM): 80.8% and 93.1%; viability, T/C (compound 0.003 µM): 4.56% and 1.33%; viability, T/C (compound 0.00949 µM): 0.1% and 0.36%; viability, T/C (compound 0.03 µM): 0.16% and 0.15%; viability, T/C (compound 0.0949 µM): 0.05% and 0.24%; viability, T/C (compound 0.3 µM): 0.08% and 0.2% |
| CC(CO)NC(=O)c1cc(-c2ccc(Cl)cc2)nn(-c2cnn(C)c2)c1=O (centres undefined) | 119% and 99.1% | 68.1% and 82.7% | 102% and 165% | 108% and 100% | 79.3% and 88.4% | 42.8% and 52.4% | 7.96 µM and > 10 µM |  |
| CC(Nc1ccc2c(c1)OCCn1cc(N3C(=O)OCC3C(F)F)nc1-2)C(N)=O (centres undefined) | 62.2% and 116% | 92% and 69.5% | 72.2% and 60.7% | 51.6% and 59.1% | 52.4% and 39.5% | 35.8% and 37.7% | 1.42 µM and 0.834 µM |  |
| CC1(C)CCC(CN2CCN(c3ccc(C(=O)NS(=O)(=O)c4ccc(NCC5CCOCC5)c([N+](=O)[O-])c4)c(Oc4cnc5[nH]ccc5c4)c3)CC2)=C(c2ccc(Cl)cc2)C1 | 103% | 85.1% | 98.6% | 63.7% | 77.5% | 2.29% | 4.31 µM |  |
| CC1COCCN1c1cc(C2(S(C)(=N)=O)CC2)nc(-c2ccnc3[nH]ccc23)n1 (centres undefined) | 63.5% | 99.9% | 62.4% | 39% | 9.17% | 4.99% | 0.626 µM |  |
| CCCS(=O)(=O)Nc1ccc(F)c(C(=O)c2c[nH]c3ncc(-c4ccc(Cl)cc4)cc23)c1F | 86.7% and 79.4% | 48.8% and 64.2% | 66% and 89% | 54.1% and 77% | 52.5% and 59.8% | 25.3% and 16.9% | 1.21 µM and 4.11 µM |  |
| CCN1CCN(Cc2ccc(Nc3ncc(F)c(-c4cc(F)c5nc(C)n(C(C)C)c5c4)n3)nc2)CC1 | 57.5% | 50.8% | 85.4% | 39.3% |  |  | > 1 µM | viability, T/C (compound 0.00316 µM): 79.4%; viability, T/C (compound 0.01 µM): 55.3% |
| CCc1c2c(nc3ccc(O)cc13)-c1cc3c(c(=O)n1C2)COC(=O)[C@]3(O)CC | 13.9% and 16.5% | 9.42% and 10.3% | 6.24% and 7.57% | 3.66% and 4.31% |  |  | < 0.00316 µM | viability, T/C (compound 0.00316 µM): 23.1% and 29.4%; viability, T/C (compound 0.01 µM): 17.5% and 16.5% |
| CN1CCN(c2cc(C(=O)Nc3cc4cc(-c5cnn(C)c5)ccc4cn3)ccn2)CC1 | 70.5% [middle of 12 runs] | 20% [middle of 12 runs] | 2.17% [middle of 12 runs] | 0.13% [middle of 8 runs] | 0.17% [middle of 7 runs] | 0.13% [middle of 8 runs] |  | IC50 (compound alone, run of 08/14/2023): 49.5 nM [middle of 12 runs] |
| CNC(=O)c1ccc(Nc2nc(OC3CCCC3)c3c(-c4ccc5nc(C)oc5c4)c[nH]c3n2)c(OC)c1 | 33.6% [middle of 8 runs] | 28.2% [middle of 8 runs] | 26.3% [middle of 8 runs] | 24.2% [middle of 8 runs] | 20.1% [middle of 8 runs] | 23.3% [middle of 8 runs] |  | IC50 (compound alone, run of 08/15/2023): < 0.0316 µM |
| COC1C=CCC(C)C(C)S(=O)(=O)NC(=O)c2ccc3c(c2)N(CC2CCC21)CC1(CCCc2cc(Cl)ccc21)CO3 (centres undefined) | 125% and 85.6% | 98.4% and 97.6% | 90.7% and 66.9% | 91.7% and 93.4% | 65.8% and 79% | 8.51% and 6.66% | 4.09 µM and 5.03 µM |  |
| COc1c(OCCCN2CCOCC2)ccc2c3n(c(=NC(=O)c4cnc(N)nc4)nc12)CCN3 | 29% and 55.5% | 18.8% and 16.3% | 7.17% and 4.92% | 2.06% and 2.01% |  |  | 0.0119 µM and 0.0248 µM | viability, T/C (compound 0.00316 µM): 96% and 133%; viability, T/C (compound 0.01 µM): 52% and 68.5% |
| Cn1ncnc1[C@H]1c2n[nH]c(=O)c3cc(F)cc(c23)N[C@@H]1c1ccc(F)cc1 | 34.8% and 42% | 33.3% and 35.4% |  |  |  |  | 0.0034 µM and 0.0226 µM | viability, T/C (compound 0.000316 µM): 65.2% and 92.2%; viability, T/C (compound 0.001 µM): 93.3% and 76.2%; viability, T/C (compound 0.00316 µM): 50.8% and 73.8%; viability, T/C (compound 0.01 µM): 48.2% and 62.2% |
| NC(=O)C(=Cn1cnc(-c2cc(C(F)(F)F)cc(C(F)(F)F)c2)n1)c1cncnc1 |  |  |  |  |  |  | 0.0157 µM | viability, T/C (compound 0.00949 µM): 69%; viability, T/C (compound 0.03 µM): 23.2%; viability, T/C (compound 0.0949 µM): 17.2%; viability, T/C (compound 0.3 µM): 8.78%; viability, T/C (compound 0.949 µM): 3.63%; viability, T/C (compound 3 µM): 2.66% |
| Nc1ccccc1NC(=O)c1ccc(CNC(=O)OCc2cccnc2)cc1 | 89% | 85.3% | 53.5% | 35.9% | 10% | 0.1% | 0.465 µM |  |
| Nc1ccn(C2OC(CO)C(O)C2(F)F)c(=O)n1 (centres undefined) | 4.87% and 7.45% | 5.51% and 7.25% | 4.21% and 7.26% | 3.92% and 6.91% | 3.8% and 5.67% | 2.53% and 4.69% | < 0.0316 µM |  |
| O=C(c1cc(Cc2n[nH]c(=O)c3ccccc23)ccc1F)N1CCN(C(=O)C2CC2)CC1 | 87.7% and 101% | 89% and 107% | 81.1% and 74.2% | 70.4% and 86.8% | 52.5% and 54% | 34.7% and 36.2% | 3.68 µM and 4.81 µM |  |
| O=c1[nH]cc(F)c(=O)[nH]1 | 66% and 85.8% | 74.9% and 79.8% | 98.9% and 85% | 67.1% and 46.5% | 63.9% and 53.2% | 39.6% and 38% | 5.96 µM and 0.898 µM |  |
